In patent US20250034601A1, “HETERODIMERIC BENZALDEHYDE SYNTHASE, METHODS OF PRODUCING, AND USES THEREOF” (Purdue Research Foundation, priority 2021, published 2025):

Columns and labels:
[1] = system: pds-bsα-bsβ VIGS petunia flowers; experiment: Emission of volatiles from pds-bsα-bsβ VIGS petunia flowers; format: in vivo, Petunia hybrida; conditions: 2-day-old VIGS flowers, volatiles collected 20:00 to 21:00, n=6
Description: Petunia hybrida cv. Mitchell diploid (W115, Ball Seed Co., Oxford, Canada) plants were grown under standard greenhouse condition with a light period from 6:00 to 21:00 hour. To link the simultaneous downregulation of PhBSα and PhBSβ6 genes via virus induced gene silencing (VIGS) to the silencing of a marker gene, a previously generated pTRV2-PDS construct containing a 300 bp fragment of Nicotiana benthamiana Phytoene Desaturase (PDS) (CDS nucleotides 580˜879; SEQ ID NO: 11) was used (deposited with the National Center for Biotechnology Information (NCBI) GenBank and having the accession number DQ469932.1 (accepted Dec. 4, 2007)). See Spitzer et al., Reverse genetics of floral scent: Application of tobacco rattle virus-based gene silencing in petunia, Plant Physiology 145: 1241-1250 (2007). The N. benthamiana PDS fragment shared 94.3% sequence identity with P. axillaris PDS gene.
Next, a 301 bp fragment of PhBSα (CDS nucleotides 3˜303 of SEQ ID NO: 3) and a 301 bp fragment of PhBSβ6 (CDS nucleotides 3˜303 of SEQ ID NO: 4) were tandemly cloned downstream of the PDS fragment in a pTRV2-PDS plasmid using ClonExpress II One Step Cloning Kit (Vazyme Biotech Co., Piscataway, NJ), yielding the final construct pTRV2-PDS-PhBSαp.
All binary vectors, including pTRV1, deposited with the NCBI GenBank and having accession number AF406990 (accepted Jun. 11, 2002), pTRV2-PDS and pTRV2-PDS-PhBSαp, were transformed into Agrobacterium tumefaciens strain GV3101. Single colonies for each construct were cultured at 28° C. in Luria-Bertani (LB) medium containing 50 mg/L rifampicin, 50 mg/L gentamycin, and 50 mg/L kanamycin to an optical density at a wavelength of 600 nm (OD600) of 2.4.
Cells were pelleted, washed with infiltration buffer (50 mM MES, pH 5.7, 2 mM Na3PO4, 0.5% glucose and 200 μM acetosyringone), and incubated in the same buffer for 2 hours at room temperature. Yoo et al., An alternative pathway contributes to phenylalanine biosynthesis in plants via a cytosolic tyrosine:phenylpyruvate aminotransferase, Nature Communications 4: 2833 (2013). […]
Petunia flower volatiles were collected by a closed-loop stripping method and analyzed by gas chromatography mass spectrometry (GC-MS) as described in Qian et al., Completion of the cytosolic post-chorismate phenylalanine biosynthetic pathway in plants, Nature Communications 10: 15 (2019), with minor modifications. […] The extracts were pooled together and concentrated to about 200 μL under a mild stream of nitrogen gas, and samples were analyzed on an Agilent 7890B-5977B gas chromatography mass spectrometry (GC-MS) system (Agilent Technologies, Inc., Santa Clara, CA) using an analytical method translated from an established method with the Agilent 6890N-5975B GC-MS system as previously described. […]

[2] = system: benzaldehyde synthase (BS) activity in petunia flower crude protein extracts; experiment: BS activity in petunia flower crude protein extracts with different substrates and cofactors (GC-MS); format: biochemical, Petunia hybrida; conditions: substance supplied as cofactor with benzoyl-CoA or in place of benzoyl-CoA; 30 minutes at 28° C.
Description: The crude protein extracts were obtained by extraction of petunia petal tissue with buffer A (3:1 [v/w] buffer/tissue). After centrifugation of slurry at 15,000 g for 20 minutes, the supernatant was desalted with Econo-Pac 10DG Columns (Bio-Rad, Hercules, CA) according to the manufacturer's protocol and 20 μL of desalted protein was used in the activity assays. The reaction was performed for 30 minutes at 28° C. and the product was extracted with 200 μL DCM containing 1 μg naphthalene (internal standard). After centrifugation at 15,000 g for 20 minutes, 2 μL of the bottom DCM phase was injected in GC-MS, with results shown in FIG. 3A. The compounds labeled in FIG. 3A with numbers are (1) benzaldehyde, (2) benzylalcohol, (3) internal standard (naphthalene), and (4) benzylbenzoate and the different assay mixtures described above are identified with their above-associated letters.

[3] = system: Petunia hybrida benzaldehyde synthase (PhBS), recombinant heterodimer PhBSα (SEQ ID NO: 1) / PhBSβ (SEQ ID NO: 2), wild type, MBP-tagged; experiment: Kinetic parameters of recombinant PhBS (BS activity assay, HPLC; benzoyl-CoA + NADPH to benzaldehyde); format: biochemical; conditions: measured at 4 mM NADPH
Description: (§1) The reaction was initiated by adding a protein and incubated at 28° C. for 30 minutes, and the reactions were then terminated by adding 100 μL of 100% ice-cold methanol (MeOH). The BS enzyme assays were performed at an appropriate enzyme concentration so that reaction velocity was proportional to enzyme concentration and linear during the incubation time period. Km and Vmax were determined by non-linear fit to the Michaelis-Menten equation using Graphpad Prism, v8.2.0.
(§2) Triplicate assays were performed for all data points.
(§3) After centrifugation at 15,000 g for 20 minutes, 5 μL of the supernatant were subjected to high-performance liquid chromatography (HPLC) analysis using an Agilent 1260 Infinity II system (Agilent Technologies, Inc., Santa Clara, CA) equipped with an InfinityLab Poroshell 120 EC-C18 column (3.0×150 mm, 2.7 μm) maintained at 35° C. Products were separated with a 15-minute linear gradient of 10% aqueous acetonitrile solution to 100% acetonitrile and monitored at 248 nm using a diode array detector (DAD). Benzaldehyde was identified by comparing the retention time and absorption spectrum with authentic standard.
(§4) Quantitation was achieved by using standard curve generated from authentic standard and product verification was performed by GC-MS. Namely, crude protein extracts were obtained by extraction of petunia petal tissue with buffer A (3:1 [v/w] buffer/tissue). […]

[4] = target: T1, Solanum lycopersicum (tomato) benzaldehyde synthase (SlBS), recombinant heterodimer SlBSα (SEQ ID NO: 7) / SlBSβ (SEQ ID NO: 10), wild type, MBP-tagged (Solanum lycopersicum, UniProt A0A3Q7HAN1+A0A3Q7ILR9); experiment: Kinetic parameters of recombinant SlBS (BS activity assay, HPLC; benzoyl-CoA + NADPH to benzaldehyde); format: biochemical; conditions: measured at 4 mM NADPH; pH 6.5, 28° C.
T1 sequence (A0A3Q7ILR9 with tags, fused parts or gaps): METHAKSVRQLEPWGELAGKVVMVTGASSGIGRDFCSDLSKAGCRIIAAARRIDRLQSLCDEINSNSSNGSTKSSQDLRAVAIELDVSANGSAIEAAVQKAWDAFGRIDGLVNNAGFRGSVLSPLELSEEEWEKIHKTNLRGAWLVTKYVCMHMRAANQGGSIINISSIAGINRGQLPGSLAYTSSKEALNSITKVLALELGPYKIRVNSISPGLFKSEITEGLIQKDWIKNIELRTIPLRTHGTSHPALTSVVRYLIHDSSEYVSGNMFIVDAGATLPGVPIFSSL
T1 sequence (A0A3Q7HAN1 1-266): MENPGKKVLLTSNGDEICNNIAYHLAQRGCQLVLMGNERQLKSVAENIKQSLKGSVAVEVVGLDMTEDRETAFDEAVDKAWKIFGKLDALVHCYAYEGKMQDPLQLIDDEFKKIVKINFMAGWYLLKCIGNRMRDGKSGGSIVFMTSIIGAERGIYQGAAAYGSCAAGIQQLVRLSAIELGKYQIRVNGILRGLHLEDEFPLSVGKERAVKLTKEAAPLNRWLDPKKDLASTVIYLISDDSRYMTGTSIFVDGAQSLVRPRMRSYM
Description: as §1, §2, §3, §4

[5] = system: Prunus dulcis (almond) benzaldehyde synthase (PdBS), recombinant heterodimer PdBSα (SEQ ID NO: 6) / PdBSβ (SEQ ID NO: 9), wild type, MBP-tagged; experiment: Kinetic parameters of recombinant PdBS (BS activity assay, HPLC; benzoyl-CoA + NADPH to benzaldehyde); format: biochemical; conditions: measured at 4 mM NADPH
Description: as §1, §2, §3
Quantitation was achieved by using standard curve generated from authentic standard and product verification was performed by GC-MS. Namely, crude protein extracts were obtained by extraction of petunia petal tissue with buffer A (3:1 [v/w] buffer/tissue). After centrifugation of slurry at 15,000 g for 20 minutes, the supernatant was desalted with Econo-Pac 10DG Columns (Bio-Rad Laboratories, Inc., Hercules, CA) according to the manufacturer's protocol and 20 μL of desalted protein was used in BS activity assays. The reaction was performed for 30 minutes at 28° C. and the product was extracted with 200 μL DCM containing 1 μg naphthalene (internal standard). After centrifugation at 15,000 g for 20 minutes, 2 μL of the bottom DCM phase was injected in GC-MS. […]

[6] = assuming one catalytic center per heterodimer of BS

Compound	reduction of emission in pds-bsα-bsβ flowers relative to pds control [1] [%]	benzaldehyde formation by crude extracts [2]	further results
O=Cc1ccccc1 [Benzaldehyde (D5, 111), Benzaldehyde]	68.3	–	–
OCc1ccccc1 [Benzylalcohol (D5, 113), Benzylalcohol]	62.9	–	–
NC(=O)c1ccc[n+]([C@@H]2O[C@H](COP(=O)([O-])OP(=O)(O)OC[C@H]3O[C@@H](n4cnc5c(N)ncnc54)[C@H](OP(=O)(O)O)[C@@H]3O)[C@@H](O)[C@H]2O)c1 [NADP^+]	–	No benzaldehyde was formed	–
NC(=O)c1ccc[n+]([C@@H]2O[C@H](COP(=O)([O-])OP(=O)(O)OC[C@H]3O[C@@H](n4cnc5c(N)ncnc54)[C@H](O)[C@@H]3O)[C@@H](O)[C@H]2O)c1 [NAD^+]	–	No benzaldehyde was formed	–
O=CCc1ccccc1 [Phenylacetaldehyde (D7 + D8, 97 + 98), Phenylacetaldehyde]	41.2	–	–
O=C(O)c1ccccc1 [benzoic acid]	–	No benzaldehyde was formed	–
CC(C)(COP(=O)(O)OP(=O)(O)OC[C@H]1O[C@@H](n2cnc3c(N)ncnc32)[C@H](O)[C@@H]1OP(=O)(O)O)[C@@H](O)C(=O)NCCC(=O)NCCSC(=O)c1ccccc1 [benzoyl-CoA]	–	–	kcat (benzoyl-CoA) [3, 6]: 9.39 ± 0.40 s⁻¹; Vmax (benzoyl-CoA) ([3]; pH 6.5, 28° C.): 63.5 ± 2.7 nKat/mg; Vmax (benzoyl-CoA) [4]: 13.2 ± 3.0 nKat/mg; kcat (benzoyl-CoA) [5, 6]: 5.26 ± 0.20 s⁻¹; Vmax (benzoyl-CoA) ([5]; pH 6.5, 28° C.): 35.4 ± 1.3 nKat/mg; Km ([5]; read-out: Km for benzoyl-CoA, apparent, pH 6.5, 28° C.): 629 ± 67.7 µM
O=C(OCc1ccccc1)c1ccccc1 [benzylbenzoate]	35.6	–	–
O=C(O)C=Cc1ccccc1 [cinnamic acid]	–	No benzaldehyde was formed	–
nicotinamide adenine dinucleotide phosphate [NADPH]	–	Efficient conversion of benzoyl-CoA to benzaldehyde	–
